{"source": "patent US6462086B1", "about": "“Non-malignant disease treatment with Ras antagonists” (Ramot University Authority for Applied Research and …, priority 1999, dated 2002)", "test_system": "MRL/lpr mice", "assay": "Serum autoantibodies by ELISA in MRL/lpr and MRL/++ mice", "assay_type": "in vivo, mouse", "details": "16 weeks of age", "description": "FTS was synthesized as previously described (13). FTS was stored in chloroform, which was evaporated under a stream of nitrogen immediately before use. The powder was dissolved in absolute ethanol and diluted to the desired concentration in sterile saline made basic with NaOH. 200 μl of carrier solution containing 100 μg of FTS (5 mg/kg) were injected intraperitoneally (i.p.) into each mouse. Control solution was prepared at the same time starting with a chloroform solution.\nMice were treated once a day, 3-5 times a week starting from 6 or 10 weeks of age until 18 weeks of age.\nThe mice were bled at 16 weeks of age by retro-orbital sinus puncture and the sera were separated by centrifugation and stored at −70° C. until assayed. The sera were tested by ELISA for the presence of different autoantibodies as previously described (15, 16). This included serum dependent (β2-GPI dependent) and independent antibodies to cardiolipin (aCL) and antibodies to single and double stranded DNA (anti-ssDNA, anti-dsDNA).", "note": "“Also recorded” adds a separate entry of the source.", "data": [{"smiles": "CC(C)=CCC/C(C)=C/CC/C(C)=C/CSc1ccccc1C(=O)O", "note": "[FTS, farnesyl thiosalicylic acid]", "values": [{"measurement": "levels of anti-dsDNA antibodies", "result": "did lower the levels; also recorded: significant decrease"}, {"measurement": "levels of anti-ssDNA antibodies", "result": "did not affect the levels"}, {"measurement": "levels of non-serum dependent aCL antibodies", "result": "did not affect the levels"}, {"measurement": "levels of β2-GPI dependent aCL antibodies", "result": "did lower the levels; also recorded: significant decrease"}]}]}
